Laboratory results as given in the NIST ThermoML archive (doi:10.1016/j.jct.2013.09.008).

Assay: mn = molality of the nth substance listed, in mol/kg
Settings: 101.33 kPa, Liquid; for speed of sound: Frequency=3 MHz, Linear variable-path acoustic interferometer; for mass density: Pycnometric method; for viscosity: Capillary tube (Ostwald / Ubbelohde) method

N[C@@H](Cc1ccccc1)C(=O)O [L-phenylalanine] + O
Settings | mass density [kg/m3] | speed of sound [m/s] | viscosity [mPa·s]
293.15 K, m1 = 0.0249 | 999.4 | 1488.8 | –
293.15 K, m1 = 0.0498 | 1000.55 | 1493 | –
293.15 K, m1 = 0.0749 | 1001.71 | 1496.2 | –
293.15 K, m1 = 0.0999 | 1002.88 | 1498.3 | –
293.15 K, m1 = 0.125 | 1004.04 | 1499.4 | –
293.15 K, m1 = 0.1499 | 1005.2 | 1499.4 | –
298.15 K, m1 = 0.0249 | 998.23 | 1501.9 | 0.9038
298.15 K, m1 = 0.0498 | 999.39 | 1505.9 | 0.9168
298.15 K, m1 = 0.0749 | 1000.55 | 1509 | 0.9299
298.15 K, m1 = 0.0999 | 1001.72 | 1511 | 0.9431
298.15 K, m1 = 0.125 | 1002.88 | 1512 | 0.9561
298.15 K, m1 = 0.1499 | 1004.05 | 1511.9 | 0.9691
303.15 K, m1 = 0.0249 | 996.84 | 1513.1 | 0.8083
303.15 K, m1 = 0.0498 | 998 | 1516.8 | 0.819
303.15 K, m1 = 0.0749 | 999.17 | 1519.5 | 0.8294
303.15 K, m1 = 0.0999 | 1000.34 | 1521.2 | 0.8399
303.15 K, m1 = 0.125 | 1001.51 | 1521.8 | 0.8505
303.15 K, m1 = 0.1499 | 1002.68 | 1521.3 | 0.8605
308.15 K, m1 = 0.0249 | 995.24 | 1524.1 | 0.7285
308.15 K, m1 = 0.0498 | 996.4 | 1527.4 | 0.7372
308.15 K, m1 = 0.0749 | 997.58 | 1529.8 | 0.7462
308.15 K, m1 = 0.0999 | 998.75 | 1531.1 | 0.7545
308.15 K, m1 = 0.125 | 999.92 | 1531.4 | 0.7635
308.15 K, m1 = 0.1499 | 1001.09 | 1530.6 | 0.7722
313.15 K, m1 = 0.0249 | 993.43 | 1530.8 | 0.6607
313.15 K, m1 = 0.0498 | 994.6 | 1533.8 | 0.668
313.15 K, m1 = 0.0749 | 995.78 | 1535.8 | 0.6749
313.15 K, m1 = 0.0999 | 996.96 | 1536.8 | 0.682
313.15 K, m1 = 0.125 | 998.14 | 1536.7 | 0.6897
313.15 K, m1 = 0.1499 | 999.32 | 1535.7 | 0.6968
318.15 K, m1 = 0.0249 | 991.43 | 1536.5 | 0.604
318.15 K, m1 = 0.0498 | 992.61 | 1539.1 | 0.6102
318.15 K, m1 = 0.0749 | 993.8 | 1540.8 | 0.616
318.15 K, m1 = 0.0999 | 994.98 | 1541.5 | 0.622
318.15 K, m1 = 0.125 | 996.17 | 1541.3 | 0.6285
318.15 K, m1 = 0.1499 | 997.36 | 1540 | 0.6346
